Values of other authors, collected in paper PMC2864005 (Archives of biochemistry and biophysics, 2010).

System: 3A4
Settings: after an initial burst

Q: Which Rate of metabolism does the source give for CCC(C)n1ncn(-c2ccc(N3CCN(c4ccc(OCC5COC(Cn6cncn6)(c6ccc(Cl)cc6Cl)O5)cc4)CC3)cc2)c1=O (stereo not shown) [itraconazole] here?
A: 0.0016 s⁻¹
